Reference: US5407961A, “α-substituted benzenemethanamine derivatives and pharmaceutical use” (Janssen Pharmaceutica N.V., priority 1991, dated 1995)
Converted amounts (≈) assume the structure as drawn. Like-named read-outs stand apart in the source and are kept apart here.

What was measured:
in vitro = format: cell-based; settings: human, mt-4 cells
Method: (§1) A rapid, sensitive and automated assay procedure was used for the in-vitro evaluation of anti-HIV agents. An […] T4-cell line, MT-4, which was previously shown (Koyanagi et al., Int. J. Cancer, 36, 445-451, 1985) to be highly susceptible to and permissive for HIV infection, served as the target cell line. Inhibition of the HIV-induced cytopathic effect was used as the end point. The viability of both HIV- and mock-infected cells was assessed spectrophotometrically via the in-situ reduction of 3-(4,5-dimethylthiazol-2-yl)-2,5-diphenyltetrazolium bromide (MTT). The 50% cytotoxic dose (CD50 in μg/ml) was defined as the concentration of compound that reduced the absorbance of the mock-infectedcontrol sample by 50%. The percent protection achieved by the compound in HIV-infected cells was calculated by the following formula: [formula] whereby (ODT)HIV is the optical density measured with a given concentration of the test compound in HIV-infected cells; (ODC)HIV is the optical density measured for the control untreated HIV-infected cells; (ODC)MOCK is the optical density measured for the control untreated mock-infected cells; all optical density values were determined at 540 nm. The dose achieving 50% protection according to the above formula was defined as the 50% effective dose (ED50 in μg/ml). The ratio of CD50 to ED50 was defined as the selectivity index (SI).

HIV-1 = test: in-vitro anti-HIV assay: inhibition of the HIV-induced cytopathic effect in HIV-infected MT-4 cells (MTT); format: cell-based, Human Immunodeficiency Virus; settings: for SI (selectivity index): ratio of CD50 to ED50
Method: as §1

[1] = Human immunodeficiency virus 1, MT4, dose achieving 50% protection in HIV-infected MT-4 cells, MTT, 540 nm, read-out: ED50 (50% effective dose)

Row | Compound | CC50 (in vitro) | EC50 (HIV-1; [1]) | SI (selectivity index) (HIV-1) | EC50 (HIV-1; Human immunodeficiency virus 1, MT4, read-out: ED50 (50% effective dose))
1 | NC(=O)C(Nc1cccc2c1C(=O)CO2)c1c(Cl)cccc1Cl (racemic) [Compound 9, (±)-2,6-dichloro-α-[(2,3-dihydro-3-oxo-4-benzofuranyl)amino]benzeneacetamide] | 169 µg/mL (≈ 480 µM) | 0.12 µg/mL (≈ 0.342 µM) | 1405 | –
2 | Cc1cc2c(c(NC(C(N)=O)c3c(Cl)cccc3Cl)c1)C(=O)CC2 (racemic) [Compound 1, (±)-2,6-dichloro-α-[(2,3-dihydro-6-methyl-3-oxo-1H-inden-4-yl)amino]benzene-acetamide] | 207 µg/mL (≈ 570 µM) | 0.0038 µg/mL (≈ 0.0105 µM) | 54560 | –
3 | CCC(Nc1ccccc1C(C)=O)c1c(Cl)cccc1Cl (stereo not drawn) [Compound 11, 1-[2-[[1-(2,6-dichlorophenyl)propyl]amino]phenyl]ethanone] | 6.9 µg/mL (≈ 21.4 µM) | 0.52 µg/mL (≈ 1.61 µM) | 13 | –
4 | CC(Nc1ccccc1[N+](=O)[O-])c1c(Cl)cccc1Cl (stereo not drawn) [Compound 13, 2,6-dichloro-α-methyl-N-(2-nitrophenyl)benzenemethanamine] | 0.13 µg/mL (≈ 0.418 µM) | 0.021 µg/mL (≈ 0.0675 µM) | 6 | –
5 | NC(=O)C(Nc1cccc2ccc[n+]([O-])c12)c1c(Cl)cccc1Cl (stereo not drawn) [Compound 7] | 53 µg/mL (≈ 146 µM) | – | 3255 | 0.047 µg/mL (≈ 0.13 µM)
6 | CC(=O)c1cc2c(cc1NC(C(N)=O)c1c(Cl)cccc1Cl)CCC2 (stereo not drawn) [Compound 5] | 10 µg/mL (≈ 26.5 µM) | 0.2 µg/mL (≈ 0.53 µM) | 50 | –
7 | NC(=O)C(Nc1cc(Cl)cc2c1OCC2)c1c(Cl)cccc1Cl (stereo not drawn) [Compound 6] | 0.87 µg/mL (≈ 2.34 µM) | 0.079 µg/mL (≈ 0.213 µM) | 11 | –
8 | CC(=O)c1ccccc1NC(C)c1c(Cl)cccc1Cl (racemic) [Compound 10, (±)-1-[2-[[1-(2,6-dichlorophenyl)ethyl]amino]phenyl]ethanone] | 5 µg/mL (≈ 16.2 µM) | 0.022 µg/mL (≈ 0.0714 µM) | 227 | –
9 | CC(=O)c1ccccc1NC(c1c(Cl)cccc1Cl)C1CC1 (racemic) [Compound 14, (±)-1-[2-[[cyclopropyl-(2,6-dichlorophenyl)methyl]amino]phenyl]ethanone] | 4.1 µg/mL (≈ 12.3 µM) | 0.15 µg/mL (≈ 0.449 µM) | 27 | –
10 | O=[N+]([O-])c1ccccc1NC(CO)c1c(Cl)cccc1Cl (racemic) [Compound 12, (±)-2,6-dichloro-β-(2-nitrophenyl)amino]benzeneethanol] | 4.3 µg/mL (≈ 13.1 µM) | 0.18 µg/mL (≈ 0.55 µM) | 25 | –
